We go through 3 compounds from patent publication US6416752B1, “Termite bait composition and method” (Whitmire Micro-Gen Research Laboratories, Inc., priority 2001, dated 2002).

Several values for one entry are separate records, joined by “and”; a condition that tells them apart may be missing. Identical values can stand only once.

The assay has as its system Reticulitermes virginicus. Briefly: standard choice box test of termite bait compositions with killing agents. In kind it is in vivo. The conditions noted are these: for Percent Survivorship: choice with untreated pine wood; for Amount of Wood Removed: untreated pine wood blocks; for termites killed: after 25 days. As to the method: The termite bait active ingredients or killing agents diflubenzuron, emamectin benzoate and thiamethoxam were tested for their efficacy. The termite species tested was Reticulitermes virginicus. The methodology employed was the standard “choice box” test used in Example 1 in which termites were released into a central chamber with untreated wood. The central chamber was connected, using Tygon tubing (2 mm I D), with peripheral feeding chambers containing a termite bait composition of the invention (microcrystalline cellulose powder having an average particle size of 20 micrometers and a termite killing agent) or untreated pine wood. Each replicate was given the choice of one gram of the treated cellulose powder or three blocks (1 cm) of untreated pine wood. At the end of 25 or 37 days, the number of live termites was counted. At the same time, the amount of pine wood or termite bait composition consumed was measured. The treatments were replicated two times.

[1] abbreviates: 25 days in bioassay, 0.05% in microcrystalline cellulose powder.

For `O=C(NC(=O)c1c(F)cccc1F)Nc1ccc(Cl)cc1` [Dimilin, diflubenzuron], under “37 days in bioassay, 0.5% in microcrystalline cellulose powder”, the “Percent Survivorship” value is 0.1% and 0%. Further, the control of termites entry (after 37 days exposure) is reported as “almost complete control”.

`CN1COCN(Cc2cnc(Cl)s2)/C1=N\[N+](=O)[O-]` [Thiamethoxam, thiamethoxam]: the termites killed came to 100%. Besides, the “Amount of Cellulose Powder Removed” value (600 h) worked out at 0.01 g. In addition, the “Percent Survivorship” value under setting [1] came to 0%. Besides, the “Amount of Wood Removed” value (25 days, 0.05%) is 0 g.

emamectin benzoate came in with a termites killed of 100%. In addition, the “Percent Survivorship” value under setting [1] is on record as 0%. Besides, for the setting “25 days, 0.05%, one gram of treated cellulose powder offered”, the “Amount of Cellulose Powder Removed” value was 0.07 g and 0.13 g. Where the note is “25 days, 0.05%”, the “Amount of Wood Removed” value is 0 g.
